Laboratory results from PMC6508677, “Identification of druggable small molecule antagonists of the Plasmodium falciparum hexose transporter PfHT and assessment of ligand access to the glucose permeation pathway via FLAG-mediated protein engineering” (PLoS ONE, 2019).

Molecular target: T1, hGLUT1 (Homo sapiens, UniProt P11166)
T1 construct: expressed in transfected cells; host or cells: HEK293 (HEK293-FLIP); native hGLUT1 not knocked down in this line
T1 sequence (P11166 1-492): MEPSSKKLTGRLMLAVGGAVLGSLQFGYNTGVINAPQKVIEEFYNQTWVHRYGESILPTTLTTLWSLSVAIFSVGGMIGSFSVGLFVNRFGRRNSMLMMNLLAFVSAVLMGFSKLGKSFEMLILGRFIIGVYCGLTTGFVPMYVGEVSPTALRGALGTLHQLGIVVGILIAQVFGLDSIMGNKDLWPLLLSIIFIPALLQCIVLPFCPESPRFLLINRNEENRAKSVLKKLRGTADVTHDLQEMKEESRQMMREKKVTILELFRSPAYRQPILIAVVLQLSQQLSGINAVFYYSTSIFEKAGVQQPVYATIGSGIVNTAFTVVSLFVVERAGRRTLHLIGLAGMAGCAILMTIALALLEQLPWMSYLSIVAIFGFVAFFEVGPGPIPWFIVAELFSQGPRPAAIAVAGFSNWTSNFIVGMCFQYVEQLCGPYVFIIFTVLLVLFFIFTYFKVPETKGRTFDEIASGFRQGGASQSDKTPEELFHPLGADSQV
Assay: 2-DG uptake by HEK293 cells overexpressing hGLUT1
Assay type: cell-based
Settings: for IC50 for inhibition of 2-DG uptake: GLUT1 cell line; for inhibition at 5 µM: 5 μM compound
Description: Generation of HEK293 cells overexpressing PfHT and human GLUTs 1–4 were described elsewhere. Briefly, HEK293 cells were transfected with pcDNA3.1 FLII12Pglu-7006 (Addgene), containing the fluorescence resonance energy transfer (FRET) glucose sensor (HEK293-FLIP) and PfHT, human GLUT1 (hGLUT1), hGLUT2, hGLUT3, hGLUT4, hGLUT5 or hGLUT8 using Optifect (Life Technologies) according to manufacturer’s specifications. To increase retention of GLUT8 at the plasma membrane, the dileucine sorting signal E^7E^8XXXLL was modified to R^7R^8XXXLL as described in [17]. Stable transfectants were selected for G418 and hygromycin resistance to select for FRET sensor and hexose transporter, respectively. HEK293-FLIP cells were also used to generate cells stably transfected with FLAG-tagged PfHT (FTPfHT). FLAG tag ([…]) followed by a triple glycine linker and a tobacco etch virus (TEV) protease site (ENLYFQS) followed by a triple glycine linker was added to the N-terminus of PfHT via PCR [18] using Phusion Hot Start II High-Fidelity DNA Polymerase (Fisher Scientific). Single clones were selected by comparing their abilities to transport glucose as assayed via FRET and radiolabeled hexose uptake. In all cell lines, except for HEK293 cells overexpressing hGLUT1 and hGLUT5, native hGLUT1 was knocked down using shRNA as described elsewhere. Transcript levels of the individual GLUTs expressed in each cell line are as described in [13, 15] and in S1 Fig.
Glucose uptake by P. falciparum was performed essentially as described. P. falciparum strain 3D7 was cultured in 100 mm tissue culture dishes (Techno Plastic Products) in a 2% suspension of human erythrocytes and RPMI 1640 medium until reaching > 7.5% parasitemia. Cells were pelleted via centrifugation and resuspended in RPMI 1640 medium. To determine the uptake of radiolabeled glucose into the parasite, parasites were isolated from infected erythrocytes by permeablization with saponin (0.05 w/v), followed by centrifugation, aspiration of supernatant and washing of the pellet 3X with saline solution (135 mM NaCl, 2 mM KCl, 25 mM HEPES, 0.2 mM glucose and 1 mM MgCl2; pH 7.1) to remove cellular debris. WU-1 or DMSO vehicle were added to 100 μl parasites (resuspended in saline) 5 min prior to the addition of 100 μl [^14C]2-DOG (0.2- μCi/ml final concentration). 2-DG uptake was stopped after 2 min by layering the entire reaction over 300 μl of an oil mixture (5:4 mix of dibutyl phthalate / dinonyl phthalate) in Eppendorf tubes and centrifuged at 15,850 × g for 2 mins. The ratio of the estimated intracellular concentration of radiolabel relative to the extracellular concentration were calculated as described. Uptake of radiolabeled hexose into HEK293 cells was measured in glucose-free HBSS as described previously. Briefly, cells were plated at 400,000 cells/well overnight at 37°C in 24-well plates pre-treated with PEI. After 30-min incubation at 37°C in glucose-free HBSS in the presence of vehicle or increasing concentrations of compound, 2-DG uptake was measured in glucose-free HBSS for 4 min at 37°C. Cultures were washed in ice-cold 1X PBS and lysed in 0.1% Triton X-100 in 1X PBS. Radiolabeled hexose uptake was determined by liquid scintillation counting (Ultima Gold, Thermo Fisher) and normalized to total protein per well. Uptake data are plotted as percent uptake relative to vehicle-treated cells. Kinetic analyses were performed using the indicated concentrations of substrate and WU-1, with quenching of uptake after 1 min incubation. Incubation times had been previously determined as being in the linear range of time-dependent radiolabeled hexose uptake (2 min for 2-DG uptake into freed parasites; 2 and 4 min for D-Frc and 2-DG uptake HEK cell lines, respectively). Data were fit by least squares nonlinear regression analysis using GraphPad Prism 6.0 software.

[1] = HEK293, 4 min, GLUT1, read-out: % Inhibition of 2-DG uptake vs vehicle

Compound | 2-DG uptake (percent uptake relative to vehicle) (GLUT1, 0.001 µM compound) | 2-DG uptake (percent uptake relative to vehicle) (GLUT1, 1.25 µM compound) | 2-DG uptake (percent uptake relative to vehicle) (GLUT1, 2.5 µM compound) | 2-DG uptake (percent uptake relative to vehicle) (GLUT1, 5 µM compound) | 2-DG uptake (percent uptake relative to vehicle) (GLUT1, 10 µM compound) | 2-DG uptake (percent uptake relative to vehicle) (GLUT1, 20 µM compound) | 2-DG uptake (percent uptake relative to vehicle) (GLUT1, 40 µM compound) | 2-DG uptake (percent uptake relative to vehicle) (GLUT1, 80 µM compound) | 2-DG uptake (percent uptake relative to vehicle) (GLUT1, 160 µM compound) | 2-DG uptake (percent uptake relative to vehicle) (GLUT1, 225 µM compound) | IC50 for inhibition of 2-DG uptake | inhibition at 5 µM [1] | inhibition at 2.5 µM (HEK293, 4 min, GLUT1, 2.5 μM compound, read-out: % Inhibition of 2-DG uptake vs vehicle) | inhibition at 10 µM (HEK293, 4 min, GLUT1, 10 μM compound, read-out: % Inhibition of 2-DG uptake vs vehicle)
Cc1ccc(S(=O)(=O)CCNC(=O)c2c(-c3c(Cl)cccc3Cl)noc2C)cc1 [WU-1, 3-(2,6-dichlorophenyl)-5-methyl-N-[2-(4-methylbenzenesulfonyl)ethyl]-1,2-oxazole-4-carboxamide] | 100 | 99.74 | 109.88 | 102.1 | 100.82 | 110.03 | 120.62 | 121.35 | 125.18 | 132.09 | n.i. | -2.1% | – | –
COc1c(Br)cc([N+](=O)[O-])c(OC)c1C(=O)NC(=O)Nc1c(C)cccc1Cl [WU-2, 3-(3-bromo-2,6-dimethoxy-5-nitrobenzoyl)-1-(2-chloro-6-methylphenyl)urea] | 100 | 114.79 | 107.57 | 107.75 | 114.4 | 108.02 | 132.21 | 130.08 | 118.85 | 129.55 | n.i. | -7.75% | – | –
COc1cc(/C=C2\COC/C(=C\c3cc(OC)c(OC)c(OC)c3)C2=O)cc(OC)c1OC [WU-5, (3E,5E)-3,5-bis[(3,4,5-trimethoxyphenyl)methylidene]oxan-4-one] | – | – | – | – | – | – | – | – | – | – | – | – | 2.94% | –
COc1cc(/C=N/NC(=O)c2cc(-c3ccccc3)sc2N)cc(OC)c1OC [WU-3, 2-amino-5-phenyl-N'-[(E)-(3,4,5-trimethoxyphenyl)methylidene]thiophene-3-carbohydrazide] | – | – | – | – | – | – | – | – | – | – | – | – | – | ≥ 50%
